PubChem BioAssay (NCI)
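Dose response: 5 concentrations. Exposure: 48 h. Format: 96-well plates. Endpoint: linear interpolation; highest concentration if not reached. At the GI50, growth is halved. TGI: concentration producing complete growth inhibition.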

Columns and labels:
Test in all cases: inhibition of tumour cell growth, NCI panel, 48 h
A498 renal = test system: A498 renal
CCRF-CEM leukemia = test system: CCRF-CEM leukemia
K-562 leukemia = test system: K-562 leukemia
LXFL 529 NSCLC = test system: LXFL 529 NSCLC
MOLT-4 leukemia = test system: MOLT-4 leukemia
OVCAR-3 ovarian = test system: OVCAR-3 ovarian
SNB-19 CNS = test system: SNB-19 CNS
SNB-78 CNS = test system: SNB-78 CNS
UACC-62 melanoma = test system: UACC-62 melanoma
SK-MEL-2 melanoma = test system: SK-MEL-2 melanoma

| Compound | TGI (A498 renal) [µM] | TGI (CCRF-CEM leukemia) [µM] | TGI (K-562 leukemia) [µM] | TGI (LXFL 529 NSCLC) [µM] | TGI (MOLT-4 leukemia) [µM] | TGI (OVCAR-3 ovarian) [µM] | TGI (SNB-19 CNS) [µM] | TGI (SNB-78 CNS) [µM] | TGI (UACC-62 melanoma) [µM] | TGI (SK-MEL-2 melanoma) [µM] | GI50 (A498 renal) [µM] | GI50 (CCRF-CEM leukemia) [µM] | GI50 (K-562 leukemia) [µM] | GI50 (MOLT-4 leukemia) [µM] | GI50 (OVCAR-3 ovarian) [µM] | GI50 (SK-MEL-2 melanoma) [µM] | GI50 (SNB-19 CNS) [µM] | GI50 (UACC-62 melanoma) [µM] | GI50 (LXFL 529 NSCLC) [µM] | GI50 (SNB-78 CNS) [µM] |
| --- | --- | --- | --- | --- | --- | --- | --- | --- | --- | --- | --- | --- | --- | --- | --- | --- | --- | --- | --- | --- |
| COc1ccc2nc3ccccc3c(NCCN(CCCl)CCCl)c2c1 | 5.73 | 2.39 | 4.92 | 2.25 | 0.758 | 1.08 | 7.66 | 4.53 | 2.3 | – | – | – | – | – | – | – | – | – | – | – |
| N#CCCN(c1ccc(C=O)cc1)S(=O)(=O)c1ccccc1 | > 100 | – | > 100 | > 100 | > 100 | > 100 | > 100 | – | > 100 | > 100 | – | – | – | – | – | – | – | – | – | – |
| CSC1=Nc2ccccc2N=C(c2ccccc2)C1 | > 100 | 58.9 | > 100 | > 100 | > 100 | > 100 | > 100 | > 100 | > 100 | > 100 | – | – | – | – | – | – | – | – | – | – |
| O=C(CC(=O)c1cccc([N+](=O)[O-])c1)C(=O)Nc1ccccc1 | > 100 | > 100 | > 100 | > 100 | > 100 | > 100 | > 100 | > 100 | > 100 | > 100 | – | – | – | – | – | – | – | – | – | – |
| CCN(CC)C(=O)CC12CCCCC1=Nc1ccccc12 (stereo not given) | > 100 | > 100 | > 100 | > 100 | > 100 | > 100 | – | > 100 | > 100 | > 100 | – | – | – | – | – | – | – | – | – | – |
| CC[As](CC)SCC1OC(OC(C)=O)C(OC(C)=O)C(OC(C)=O)C1OC(C)=O (stereo not given) | 38.9 | 18.4 | 14 | 3.77 | 48.2 | 27.6 | 33.5 | 34.1 | 27.2 | 26.2 | – | – | – | – | – | – | – | – | – | – |
| O=C(CC1(O)C(=O)Nc2ccccc21)c1ccccc1O (stereo not given) | > 100 | – | > 100 | > 100 | > 100 | > 100 | > 100 | > 100 | > 100 | > 100 | – | – | – | – | – | – | – | – | – | – |
| CC(=O)O[C@@H]1CC[C@@]2(C)C(=O)C34C[C@@]5(C)C([C@@H](C)CCCC(C)C)CCC5(C)[C@](O)(O3)C(=O)[C@H]4C2C1(C)C (stereo not given in full) | 38.5 | 19.8 | 29.9 | 30.4 | 28.8 | 25.1 | 30.7 | 48.2 | 32.6 | 37 | – | – | – | – | – | – | – | – | – | – |
| Clc1ccccc1C1SCc2nc3ccccc3n21 (stereo not given) | – | > 100 | > 100 | > 100 | > 100 | 29.5 | 40.6 | 53.6 | – | 57.1 | – | – | – | – | – | – | – | – | – | – |
| COC(=O)C1=CC(=O)[C@@H]2CCCC[C@H]12 | – | > 100 | > 100 | > 100 | > 100 | > 100 | > 100 | > 100 | > 100 | > 100 | – | – | – | – | – | – | – | – | – | – |
| C[C@]12CC[C@H]3[C@@H](CC[C@]4(O)C[C@@H](O[C@@H]5O[C@H](CO)[C@@H](O[C@@H]6OC[C@@H](O)[C@H](O)[C@H]6O)[C@H](O)[C@H]5O)CC[C@]34C=O)[C@@]1(O)CC[C@@H]2C1=CC(=O)OC1 | 4.5 | 5.24 | 10.2 | – | 1.82 | 3.08 | 9.27 | – | 5.04 | 4.44 | 1.23 | 0.78 | 1.57 | 0.302 | 1.17 | 1.49 | 2.53 | 1.61 | – | – |
| CC/C(=C(/c1ccc(OCCN(C)C)cc1)c1ccc(OC(=O)CCCCCCCCC(=O)c2c(C)[nH]c(/C=C3\N=C(c4ccc[nH]4)C=C3OC)c2C)cc1)c1ccccc1 | 72 | > 100 | > 100 | – | > 100 | > 100 | 50.7 | – | 18.1 | > 100 | 15 | 0.768 | 4.54 | 5.13 | 10.9 | 30.7 | 12.1 | 3.37 | – | – |
| O=C(CN1CCN(C(=O)c2ccco2)CC1)Nc1ccc(Cl)cc1C(=O)c1ccccc1Cl | 22.9 | > 100 | 10.5 | – | 5.44 | 17.5 | 94.7 | – | 23.4 | 17.5 | 6.8 | 5.28 | 0.691 | 2.14 | 5.53 | 3.14 | 12.1 | 8.85 | – | – |
| N#Cc1cccc(C2C(=O)c3ccc(C(=O)c4ccc5c(c4)C(=O)N(c4ccc(Oc6ccc(N7C(=O)c8ccc(C(=O)c9ccc%10c(c9)C(=O)N(c9cccc(C#N)c9)C%10=O)cc8C7=O)cc6)cc4)C5=O)cc3C2=O)c1 (stereo not given) | – | > 100 | > 100 | > 100 | > 100 | > 100 | > 100 | – | > 100 | > 100 | – | – | – | – | – | – | – | – | – | – |
| N#C/C(=C\c1ccc[nH]1)C(=O)c1ccccc1 | – | > 100 | > 100 | > 100 | > 100 | > 100 | > 100 | > 100 | > 100 | > 100 | – | – | – | – | – | – | – | – | – | – |
| Cc1c(Cl)c(C)c(Cl)c(O)c1Cl | 68.7 | > 100 | 46.3 | – | 54.5 | 66.5 | > 100 | – | 37.4 | 30.3 | – | – | – | – | – | – | – | – | – | – |
| O=C1c2ccc3c4c(ccc(c24)C(=O)N1CCNCc1ccccc1)C(=O)N(CCNCc1ccccc1)C3=O | 37.8 | > 100 | > 100 | – | > 100 | 4.16 | 9.28 | – | 3.35 | 5.81 | 15.6 | 2.51 | 0.365 | 3.96 | 1.91 | 2.23 | 2.67 | 1.74 | – | – |
| O=C1OCC2=C1C(c1cccc(Cl)c1)c1cc3c(cc1N2CCO)CCC3 (stereo not given) | 0.0947 | 14.1 | 14.4 | – | 20.3 | 0.0666 | 17.3 | – | 15.3 | 0.441 | 0.0215 | 0.0416 | 0.0478 | 0.192 | 0.0253 | 0.0323 | 0.0644 | 0.0427 | – | – |
| [CH3][Hg]/[N]=C(/N)NC#N | 31.7 | > 100 | > 100 | 3.08 | > 100 | 8.6 | – | 27.1 | 23.9 | 26.7 | 17.7 | 3.65 | 1.69 | 3.73 | 2.74 | 3.65 | – | 11.4 | 1.43 | 4.76 |
